US20030091533A1, “Regulation of mononuclear phagocyte stimulation” (priority 2001, published 2003)
Marks after values point to notes of the source that are not given here.

Tests used:
Format in all cases: cell-based, human
PMA-stimulated PBM = assay: Extracellular O2- release, SOD-inhibitable reduction of ferricytochrome c; settings: for effect on the basal oxidative burst: incubation for 24 hour, PBM without stimulation
Experimental: Extracellular release of O2-derived radicals was evaluated by the SOD-inhibitable reduction of ferricytochrome c, as previously described (Pick, Methods in Enzymology, 132:407-421 (1986)) as described infra.
Extracellular release of O2-derived radicals was evaluated by the SOD-inhibitable reduction of ferricytochrome c, as previously described (Pick, Methods in Enzymology, 132:407-421 (1986)). Briefly, after incubation with IL-9 and IL-4 (20 ng/ml) for 1 hour, 4 hour 24 hour and 96 hour, cells were washed three times in Hank's balanced salt solution without phenol red (HBSS) to remove the phenol red-containing medium and incubated at 37° C. with HBSS containing 160 μM ferricytochrome c (plus 300 IU/ml SOD as control for each condition), and concomittantly with 100 ng/ml PMA when indicated. Optical density (OD) at 550 nm was then recorded in a plate spectrometer (Titertek Multiscan Plus MKII, Labsystems, Finland) after 60 min. The released amount of superoxide anion (O2^−) was deduced from the absorbance values at 550 nm (after subtraction of control values with SOD) using the cytochrome c extinction coefficient of 21×10^3 M^−1 cm^−1 (See Massey, Biochim Biophys Acta, 34: 255(1959)). Results were expressed as nmoles O2^− per 10^6 cells per hour (FIG. 1).

LPS-stimulated PBM [1] = assay: TNF-α release, cytotoxic bioassay with WEHI 164 clone 13 cells, PBM; settings: preincubated 24 hour with cytokine (IL-9, IL-4 20 ng/ml, IFN-γ 200 U/ml) or medium, LPS 1 μg/ml 20 h; without LPS 10.2±4.1
Experimental: (§1) PBM and AM obtained as described infra (1×10^6 PBM, 0.5×10^6 AM) were preincubated for 24 hour with cytokines, IL-4, IL-9 (20 ng/ml) and IFN-γ (200 U/ml) before the stimulation by LPS (1 μg/ml) for 20 h. Supernatants were harvested and frozen at −20° C. until cytokine titration. TNF-α release was determined in supernatants by a cytotoxic bioassay using WEHI 164 clone 13 target cells (Espevik and Nissen-Meyer, J. Immunol. Methods, 95:99-105 (1986) (incorporated herein by reference)), while IL-8 was quantitated in the same supernatants by ELISA. FIG. 5 depicts the effects of IL-9, IL-4, and IFN-γ on the release of TNFα (A) and IL-8 (B) by LPS-stimulated PBM and AM. Data are means±SEM (n=3). *P<0.001 compared with unstimulated cells; **P<0.05 compared with cells preincubated with medium.
(§2) Cells (1×10^6 PBM or 0.5×10^6 AM/well) were distributed in 24-well plates (Falcon), preincubated in cRPMI for 24 hours at 37° C., 5% CO2 with cytokines (IL-9, IL-4 (20 ng/ml) and IFN-γ (200 U/ml)) and stimulated for 20 hours with 1 μg/ml LPS without removing cytokines. Supernatants were harvested and frozen at −20° C. until cytokine titration. Release of TNF-α was quantified by a cytotoxicity bioassay using WEHI 164 cells clone 13, as previously described (Espevik and Nissen-Meyer, J. Immunol. Methods, 95:99-105 (1986) incorporated herein by reference), using rhTNF-α from Boehringer as a standard. IL-8, IL-10 and TGF-β1 concentrations were determined by ELISA. A kit from CLB (Amsterdam, The Netherlands) was used for IL-10 quantitation, following the manufacturer's protocol. A kit from Biosource allowed to determine TGF-β1 after the release from its latent complexes by a treatment of supernatants with ethanol acid (‘acid-treated supernatants’); TGF-P 1 was also assessed in crude supernatants (‘untreated supernatants’). […] The reaction was then developed in 0.03% v/v H2O2 substrate and 0.42 mM 3,3′,5,5′-tetramethylbenzidine as chromogen in 100 mM sodium acetate/citric acid buffer (pH 4.9), stopped with 2 M H2SO4, and read in a plate spectrometer at 450 nm. […]

LPS-stimulated PBM [2] = assay: IL-8 release by ELISA, PBM; settings: for effect on IL-8 release by LPS-stimulated PBM: preincubated 24 hour, LPS 20 hour
Experimental: as §1, §2

CD14 = CD14 surface expression on PBM by FACS; settings: for CD14 expression (MFI): PBM preincubated 24 hour, 20 ng/ml IL-9 or IL-4, 200 U/ml IFN-γ, means±SD, medium 107 ± 4; for CD14 expression on the surface of PBM compared with medium alone: preincubated for 24 hour
Experimental: (§3) Table 2. Cells (0.2×10^6) were preincubated for 24 hour with cytokines (20 ng/ml for IL-9 or IL-4 and 200 U/ml for IFN-γ), before the assessment of LPS receptor expression by immunostaining using anti-human CD14 mAb conjugated to FITC and anti-human TLR4 rabbit Ab followed by mouse anti-rabbit IgG (MAR-FITC). Cell-associated fluorescence was evaluated by FACS and expressed as mean fluorescence intensity (MFI). Autofluorescence of PBM was negligible (MFI: 3±1). Data are means±SD (n=3), and are representative of two experiments. *P<0.05 compared with cells preincubated with medium.
(§4) Additional stainings for CD14 and Toll-like receptor (TLR)-4 were performed on PBM preincubated for 24 hour with cytokines, using respectively FITC-conjugated anti-CD14 mAb (clone MøP9, mIgG2b, Becton Dickinson) and anti-TLR4 rabbit Ab (Santa Cruz, Calif.) followed by F (ab′)2 fragments of mouse anti-rabbit IgG (MAR)-FITC.

TLR4 = TLR4 surface expression on PBM by FACS; settings: for TLR4 expression (MFI): PBM preincubated 24 hour, 20 ng/ml IL-9 or IL-4, 200 U/ml IFN-γ, means±SD, medium 73 ± 2; for TLR4 expression on the surface of PBM compared with medium alone: preincubated for 24 hour
Experimental: as §3, §4

Row | Molecule | effect on O2^− release by PMA-stimulated PBM (PMA-stimulated PBM; 24 hour of preincubation) | effect on O2^− release by PMA-stimulated PBM (PMA-stimulated PBM; 96 hour of preincubation) | effect on the basal oxidative burst (PMA-stimulated PBM) | TNF-α release by LPS-stimulated PBM (LPS-stimulated PBM [1]) [pg/mL] | IL-8 release by LPS-stimulated PBM (LPS-stimulated PBM [2]; preincubated 24 hour with cytokine or medium, LPS 1 μg/ml 20 hour, without LPS 10.0±2.4) [ng/mL] | CD14 expression (MFI) (CD14) | CD14 expression on the surface of PBM compared with medium alone (CD14) | TLR4 expression (MFI) (TLR4) | TLR4 expression on the surface of PBM compared with medium alone (TLR4) | O2^− release by PMA-stimulated PBM (PMA-stimulated PBM; preincubation 24 hour, 20 ng/ml, PMA 100 ng/ml, medium-preincubated cells 40.1±2.5) | effect on O2^− release by PMA-stimulated PBM (PMA-stimulated PBM; shorter preincubation periods (1 hour, 4 hour)) | effect on IL-8 release by LPS-stimulated PBM (LPS-stimulated PBM [2]) | effect on the up regulation of CD14 on PBM incubated with IFN-γ (CD14; co-incubation with IFN-γ)
1 | IL-4: Th2 cytokine interleukin-4 used as comparator, 20 ng/ml | same inhibitory effect | significantly increased | little effect | 72.5 ± 21.5 | 20.1 ± 2.1 | 57 ± 3* MFI | down regulated | 58 ± 1* MFI | down regulated |  |  |  | 
2 | IL-9: Human IL-9 purified from SF9 insect cell cultures infected with recombinant baculovirus |  | not further increased | little effect | 84.2 ± 17.2 |  | 108 ± 5 MFI | not significantly different | 71 ± 4 MFI | not significantly different | 23.2±0.8 nmoles 02-per 10^6 cells. h^−1 | not significant | no significant modulation | inhibited
3 | IFN-γ: Interferon gamma, primes mononuclear phagocytes, 200 U/ml (protein, UniProt P01579 24-161, looked up) Interferon gamma: QDPYVKEAENLKKYFNAGHSDVADNGTLFLGILKNWKEESDRKIMQSQIVSFYFKLFKNFKDDQSIQKSVETIKEDMNVKFFNSNKKKRDDFEKLTNYSVTDLNVQRKAIHELIQVMAELSPAAKTGKRKRSQMLFRG | slightly up regulated |  |  | 289.8 ± 12.9 |  | 121 ± 6* MFI | increased | 82 ± 2* MFI | increased |  |  | no significant modulation | 
